Results: patent publication US10806785B2, “Immunomodulator compounds and methods of use” (Incyte Corporation, priority 2016, dated 2020)

target: PD-1/PD-L1 (Homo sapiens (Human), UniProt Q9NZQ7); experiment: PD-1/PD-L1 binding assay (HTRF)
Procedure, shortened: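 HTRF read-out (665/620 nm) after 60 min at 25 °C with 1 nM Eu anti-human IgG and 20 nM APC anti-His. Beforehand, inhibitors were preincubated 40 min with Fc-PD-1 (25-167, […] as listed) and His-PD-L1 (19-238, 10 nM) in PBS pH 7.4 with Tween-20, BSA, 1% DMSO; IC50 from log-concentration curve.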

PD-1/PD-L1, sequence (Q9NZQ7 19-238): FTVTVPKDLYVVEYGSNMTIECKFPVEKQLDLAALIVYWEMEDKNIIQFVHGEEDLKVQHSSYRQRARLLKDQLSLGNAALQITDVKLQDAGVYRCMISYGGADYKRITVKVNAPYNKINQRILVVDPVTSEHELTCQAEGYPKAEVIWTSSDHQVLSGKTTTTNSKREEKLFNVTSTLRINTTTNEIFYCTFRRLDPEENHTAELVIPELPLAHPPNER

Row | Compound | IC50 [nM]
1 | Cc1c(NC(=O)c2nc3c(n2C)CCN(C2CCCCC2)C3)cccc1-c1cccc(NC(=O)c2nc3c(n2C)CCN(C2CCC(C)(C(=O)O)CC2)C3)c1Cl (stereo not shown) [Compound 139, 4-(2-((2-chloro-3-(5-cyclohexyl-1-methyl-4,5,6,7-tetrahydro-1H-imidazo[4,5-c]pyridine-2-carboxamido)-2′-methyl-[1,1′-biphenyl]-3-yl)carbamoyl)-1-methyl-1,4,6,7-tetrahydro-5H-imidazo[4,5-c]pyridin-5-yl)-1-methylcyclohexane-1-carboxylic acid] | ≤ 10
2 | Cc1c(NC(=O)c2nc3c(n2C)CCN(C2CCOCC2)C3)cccc1-c1cccc(NC(=O)c2nc3c(n2C)CCN(C)C3)c1Cl [Example 29, N-(2-chloro-2′-methyl-3′-(1-methyl-5-(tetrahydro-2H-pyran-4-yl)-4,5,6,7-tetrahydro-1H-imidazo[4,5-c]pyridine-2-carboxamido)biphenyl-3-yl)-1,5-dimethyl-4,5,6,7-tetrahydro-1H-imidazo[4,5-c]pyridine-2-carboxamide] | ≤ 10
3 | CCN1CCc2c(nc(C(=O)Nc3cccc(-c4cccc(NC(=O)c5nc6c(n5C)CCN(CC[C@H]5CC[C@H](C(=O)O)CC5)C6)c4C#N)c3Cl)n2C)C1 [Compound 154, trans-4-(2-(2-((2′-chloro-2-cyano-3′-(5-ethyl-1-methyl-4,5,6,7-tetrahydro-1H-imidazo[4,5-c]pyridine-2-carboxamido)-[1,1′-biphenyl]-3-yl)carbamoyl)-1-methyl-1,4,6,7-tetrahydro-5H-imidazo[4,5-c]pyridin-5-yl)ethyl)cyclohexane-1-carboxylic acid] | ≤ 10
4 | CCC1(C(=O)O)CCC(N2CCc3c(nc(C(=O)Nc4cccc(-c5cccc(NC(=O)c6nc7c(n6C)CCN(C)C7)c5Cl)c4Cl)n3C)C2)CC1 (stereo not shown) [Example 83, 4-(2-((2,2′-dichloro-3′-(1,5-dimethyl-4,5,6,7-tetrahydro-1H-imidazo[4,5-c]pyridine-2-carboxamido)-[1,1′-biphenyl]-3-yl)carbamoyl)-1-methyl-1,4,6,7-tetrahydro-5H-imidazo[4,5-c]pyridin-5-yl)-1-ethylcyclohexane-1-carboxylic acid] | ≤ 10
5 | Cc1c(NC(=O)c2nc3c(n2C)CCN(C2CCC(O)CC2)C3)cccc1-c1cccc(NC(=O)c2nc3c(n2C)CCN(CC[C@H]2CC[C@H](C(=O)O)CC2)C3)c1Cl (single isomer, unassigned) [Compound 134-1, Trans-4-(2-(2-(2-chloro-3′-(5-(4-hydroxycyclohexyl)-1-methyl-4,5,6,7-tetrahydro-1H-imidazo[4,5-c]pyridine-2-carboxamido)-2′-methylbiphenyl-3-ylcarbamoyl)-1-methyl-6,7-dihydro-1H-imidazo[4,5-c]pyridin-5(4H)-yl)ethyl)cyclohexane-1-carboxylic Acid] | ≤ 10
6 | C[C@@H](O)CN1CCc2c(nc(C(=O)Nc3cccc(-c4cccc(NC(=O)c5nc6c(n5C)CCN(C)C6)c4C#N)c3Cl)n2C)C1 [Example 40, (R)—N-(2-chloro-2′-cyano-3′-(1,5-dimethyl-4,5,6,7-tetrahydro-1H-imidazo[4,5-c]pyridine-2-carboxamido)biphenyl-3-yl)-5-(2-hydroxypropyl)-1-methyl-4,5,6,7-tetrahydro-1H-imidazo[4,5-c]pyridine-2-carboxamide] | ≤ 10
7 | Cc1c(NC(=O)c2nc3c(n2C)CCN(C[C@H](C)O)C3)cccc1-c1cccc(NC(=O)c2nc3c(n2C)CCN(CC2CC2)C3)c1Cl [Example 46, (S)—N-(2-chloro-3′-(5-(2-hydroxypropyl)-1-methyl-4,5,6,7-tetrahydro-1H-imidazo[4,5-c]pyridine-2-carboxamido)-2′-methylbiphenyl-3-yl)-5-(cyclopropylmethyl)-1-methyl-4,5,6,7-tetrahydro-1H-imidazo[4,5-c]pyridine-2-carboxamide] | ≤ 10
8 | Cc1c(-c2nc3c(s2)CN(C(=O)CN(C)C)C3)cccc1-c1cccc(NC(=O)c2nc3c(n2C)CCN(C)C3)c1Cl [Example 53, N-(2-chloro-3′-(5-(2-(dimethylamino)acetyl)-5,6-dihydro-4H-pyrrolo[3,4-d]thiazol-2-yl)-2′-methylbiphenyl-3-yl)-1,5-dimethyl-4,5,6,7-tetrahydro-1H-imidazo[4,5-c]pyridine-2-carboxamide] | ≤ 10
9 | CC(C)N1CCc2c(nc(C(=O)Nc3cccc(-c4cccc(NC(=O)c5nc6c(n5C)CCN(C[C@H]5CC[C@@H](C(=O)O)CC5)C6)c4Cl)c3Cl)n2C)C1 [Example 72, cis-4-((2-((2,2′-dichloro-3′-(5-isopropyl-1-methyl-4,5,6,7-tetrahydro-1H-imidazo[4,5-c]pyridine-2-carboxamido)-[1,1′-biphenyl]-3-yl)carbamoyl)-1-methyl-1,4,6,7-tetrahydro-5H-imidazo[4,5-c]pyridin-5-yl)methyl)cyclohexane-1-carboxylic acid] | ≤ 10
10 | Cc1c(NC(=O)c2nc3c(n2C)CCN(CC2CCOCC2)C3)cccc1-c1cccc(NC(=O)c2nc3c(n2C)CCN(C)C3)c1Cl [Example 30, N-(2-chloro-2′-methyl-3′-(1-methyl-5-((tetrahydro-2H-pyran-4-yl)methyl)-4,5,6,7-tetrahydro-1H-imidazo[4,5-c]pyridine-2-carboxamido)biphenyl-3-yl)-1,5-dimethyl-4,5,6,7-tetrahydro-1H-imidazo[4,5-c]pyridine-2-carboxamide] | ≤ 10
11 | Cc1c(NC(=O)c2nc3c(n2C)CCN(CC(=O)O)C3)cccc1-c1cccc(NC(=O)c2nc3c(n2C)CCN(C)C3)c1Cl [Example 33, 2-(2-(2′-chloro-3′-(1,5-dimethyl-4,5,6,7-tetrahydro-1H-imidazo[4,5-c]pyridine-2-carboxamido)-2-methylbiphenyl-3-ylcarbamoyl)-1-methyl-6,7-dihydro-1H-imidazo[4,5-c]pyridin-5(4H)-yl)acetic Acid] | ≤ 10
12 | Cc1c(NC(=O)c2nc3c(n2C)CCN(C2CCC(C(=O)O)CC2)C3)cccc1-c1cccc(NC(=O)c2nc3c(n2C)CCN(C2CCOCC2)C3)c1Cl (stereo not shown) [Example 111, 4-(2-((2′-chloro-2-methyl-3′-(1-methyl-5-(tetrahydro-2H-pyran-4-yl)-4,5,6,7-tetrahydro-1H-imidazo[4,5-c]pyridine-2-carboxamido)-[1,1′-biphenyl]-3-yl)carbamoyl)-1-methyl-1,4,6,7-tetrahydro-5H-imidazo[4,5-c]pyridin-5-yl)cyclohexane-1-carboxylic acid] | ≤ 10

Second part, the molecule after the results:

Row | IC50 [nM] | Compound
13 | ≤ 10 | Cc1c(NC(=O)c2nc3c(n2C)CCN(C2C4CC5CC2CC(C(=O)O)(C5)C4)C3)cccc1-c1cccc(NC(=O)c2nc3c(n2C)CCN(C)C3)c1Cl (stereo not shown) [175 (compound 175-1), 4-(2-((2′-chloro-3′-(1,5-dimethyl-4,5,6,7-tetrahydro-1H-imidazo[4,5-c]pyridine-2-carboxamido)-2-methyl-[1,1′-biphenyl]-3-yl)carbamoyl)-1-methyl-1,4,6,7-tetrahydro-5H-imidazo[4,5-c]pyridin-5-yl)adamantane-1-carboxylic acid]
14 | ≤ 10 | Cn1c(C(=O)Nc2cccc(-c3cccc(NC(=O)c4nc5c(n4C)CCN(C4CCC(O)CC4)C5)c3Cl)c2Cl)nc2c1CCN(CC[C@H]1CC[C@H](C(=O)O)CC1)C2 (stereo partly drawn) [146 (compound 146-1), trans-4-(2-(2-((2,2′-dichloro-3′-(5-(4-hydroxycyclohexyl)-1-methyl-4,5,6,7-tetrahydro-1H-imidazo[4,5-c]pyridine-2-carboxamido)-[1,1′-biphenyl]-3-yl)carbamoyl)-1-methyl-1,4,6,7-tetrahydro-5H-imidazo[4,5-c]pyridin-5-yl)ethyl)cyclohexane-1-carboxylic acid]
15 | ≤ 10 | CC(C)N1CCc2c(nc(C(=O)Nc3cccc(-c4cccc(NC(=O)c5nc6c(n5C)CCN(CC[C@H]5CC[C@H](C(=O)O)CC5)C6)c4Cl)c3Cl)n2C)C1 [Example 88, trans-4-(2-(2-((2,2′-dichloro-3′-(5-isopropyl-1-methyl-4,5,6,7-tetrahydro-1H-imidazo[4,5-c]pyridine-2-carboxamido)-[1,1′-biphenyl]-3-yl)carbamoyl)-1-methyl-1,4,6,7-tetrahydro-5H-imidazo[4,5-c]pyridin-5-yl)ethyl)cyclohexane-1-carboxylic acid]
16 | ≤ 10 | C[C@H](O)CN1CCc2c(nc(C(=O)Nc3cccc(-c4cccc(NC(=O)c5nc6c(n5C)CCN(C[C@H]5CC[C@@H](C(=O)O)CC5)C6)c4Cl)c3Cl)n2C)C1 [Example 75, cis-4-((2-((2,2′-dichloro-3′-(5-((S)-2-hydroxypropyl)-1-methyl-4,5,6,7-tetrahydro-1H-imidazo[4,5-c]pyridine-2-carboxamido)-[1,1′-biphenyl]-3-yl)carbamoyl)-1-methyl-1,4,6,7-tetrahydro-5H-imidazo[4,5-c]pyridin-5-yl)methyl)cyclohexane-1-carboxylic acid]
17 | ≤ 10 | Cc1c(NC(=O)c2nc3c(n2C)CCN(C[C@H](C)O)C3)cccc1-c1cccc(NC(=O)c2nc3c(n2C)CCN(C2CCC(C)(C(=O)O)CC2)C3)c1Cl (single isomer, unassigned) [143 (compound 143-1)]
18 | ≤ 10 | Cc1c(NC(=O)c2nc3c(n2C)CCN(C[C@H](C)O)C3)cccc1-c1cccc(NC(=O)c2nc3c(n2C)CCN(C2CCOCC2)C3)c1Cl [Example 47, (S)—N-(2′-chloro-2-methyl-3′-(1-methyl-5-(tetrahydro-2H-pyran-4-yl)-4,5,6,7-tetrahydro-1H-imidazo[4,5-c]pyridine-2-carboxamido)biphenyl-3-yl)-5-(2-hydroxypropyl)-1-methyl-4,5,6,7-tetrahydro-1H-imidazo[4,5-c]pyridine-2-carboxamide]
19 | ≤ 10 | Cn1c(C(=O)Nc2cccc(-c3cccc(NC(=O)c4nc5c(n4C)CCN(C4CCOCC4)C5)c3Cl)c2Cl)nc2c1CCN(C[C@H]1CC[C@H](C(=O)O)CC1)C2 [Example 64, trans-4-((2-(2,2′-dichloro-3′-(1-methyl-5-(tetrahydro-2H-pyran-4-yl)-4,5,6,7-tetrahydro-1H-imidazo[4,5-c]pyridine-2-carboxamido)biphenyl-3-ylcarbamoyl)-1-methyl-6,7-dihydro-1H-imidazo[4,5-c]pyridin-5(4H)-yl)methyl)cyclohexane-1-carboxylic acid]
